Measurements: patent US9744263B2, “Bone tissue implant comprising strontium ions” (ASTRA TECH AB, priority 2007, dated 2017)

Experiments:
Type in all cases: cell-based, human
MG-63 cells [1] = test: ALP production on reference surfaces; conditions: 0.5 mM strontium on reference surface 1, after 7 days of cell culture
Description: (§1) At harvest, the cell culture medium was analysed with respect to the ALP content. The intracellular ALP was measured by cell lysis according to the instructions of the manufacturer (SenzoLyte™ pNPP Alkaline Phosphatase Assay Kit Colorimetric BioSite, Sweden). The absorption was set at 405 nm by an automatic plate reader (Vmax, Molecular Device, UK). By comparing the optical density of the samples with the standard provided with the kit, the ALP concentrations could be determined. The instructions from the manufacturer were followed (BioSite, Sweden).
The production of ALP on reference surface 1 comprising a concentration of 0.5 mM strontium was compared with unstimulated reference surfaces 1 and 2.

MG-63 cells [2] = test: MG-63 proliferation on reference surfaces with strontium (NucleoCounter); conditions: 0.5 mM strontium on reference surface 1, 7 days, compared to unstimulated reference surfaces 1 and 2
Description: Sterilized (β-radiation) Ti coins with reference surfaces 1 and 2, respectively were placed in 24 well plates. MG-63 cells were subcultured onto the coins in the 24 well plates at a plating density of 10 000 cells/cm^2, in total 20 000 cells/well. Sterile filtered Sr(NO3)2 at final concentrations of 5 mM and 0.5 mM (pH 5.2) was added to the respective wells. Untreated cells were used as controls. Cells were cultured for 7 days at a temperature of 37° C. in an atmosphere of 5% CO2 and 100% humidity.
The total number of cells in each well (×10^5) after each time period was determined by the NucleoCassette method by the NucleoCounter (ChemoMetec A/S Denmark).
The number of cells was investigated by lysis of the cells in “Reagent A” having a pH of 1.25 following stabilization by “Reagent B”. In the NucleoCassette, propidium iodide was incorporated which targets the amount of released DNA. The cassette was placed in the NucleoCounter and the amount of measured fluorochrome corresponded to the amount of DNA. The instructions from the manufacturer were followed (Chemometec A/S, Denmark).

MG-63 cells [3] = test: Production of alkaline phosphatase (ALP) by MG-63 cells with Sr(NO3)2 added to the wells
Description: MG-63 is a human cell line (ATCC No CRL-1427, U.S.) conventionally used in the art for in vitro studies of osteoblasts.
In this study, MG-63 cells were obtained from frozen cells in second passage and further cultured in Dulbecco's modified Eagle's medium (DMEM) containing FCS 5%, PEST 1%, Gibco, UK) in 37° C. in an atmosphere of 5% CO2 and 100% humidity. When the cells reached confluence they were subcultured by the use of 0.05% Trypsin-EDTA (Gibco, UK) until the amount of cells were obtained.
In order to study the effect of strontium on the production of alkaline phosphatase (ALP), MG-63 cells prepared in reference example 1 were subcultured into 24 well plates at a plating density of 10 000 cells/cm^2, in total 20 000 cells/well. Sterile filtered Sr(NO3)2 at final concentrations of 10 mM, 5 mM, 3 mM, and 1 mM respectively (pH 5.2) were added to the respective wells of the plate. Untreated cells were used as controls. Cells were cultured for 3, 7 and 14 days at a temperature of 37° C. in an atmosphere of 5% CO2 and 100% humidity.
as §1

O=[N+]([O-])[O-].O=[N+]([O-])[O-].[Sr+2] [strontium, Sr(NO3)2]
production of ALP compared with unstimulated reference surfaces 1 and 2 (MG-63 cells [1]): increased production of ALP
MG-63 cell proliferation, rank (MG-63 cells [2]): highest MG-63 cell proliferation
amount of ALP, rank among concentrations (MG-63 cells [3]; 3 mM strontium, after 14 days of culturing): highest amount of ALP
production of ALP compared to control (MG-63 cells [3]; after 7 days of culture): small increase
ALP levels compared to control (MG-63 cells [3]; after 14 days, especially at Sr concentrations 1 mM and 3 mM): remarkably increased
production of ALP compared to control (unstimulated cells) (MG-63 cells [3]; initially (3 days), all strontium concentrations (1, 3, 5, 10 mM), polystyrene): initially slow
